The structures appear in SMILES notation.

Consider 22 compounds from US9169254B2, “Spiroimidazolone derivative” (Chugai Seiyaku Kabushiki Kaisha, priority 2009, dated 2015).

The first test concerns the target T1, human PTH1 receptor (Homo sapiens, UniProt Q03431).
T1 sequence (Q03431 27-593): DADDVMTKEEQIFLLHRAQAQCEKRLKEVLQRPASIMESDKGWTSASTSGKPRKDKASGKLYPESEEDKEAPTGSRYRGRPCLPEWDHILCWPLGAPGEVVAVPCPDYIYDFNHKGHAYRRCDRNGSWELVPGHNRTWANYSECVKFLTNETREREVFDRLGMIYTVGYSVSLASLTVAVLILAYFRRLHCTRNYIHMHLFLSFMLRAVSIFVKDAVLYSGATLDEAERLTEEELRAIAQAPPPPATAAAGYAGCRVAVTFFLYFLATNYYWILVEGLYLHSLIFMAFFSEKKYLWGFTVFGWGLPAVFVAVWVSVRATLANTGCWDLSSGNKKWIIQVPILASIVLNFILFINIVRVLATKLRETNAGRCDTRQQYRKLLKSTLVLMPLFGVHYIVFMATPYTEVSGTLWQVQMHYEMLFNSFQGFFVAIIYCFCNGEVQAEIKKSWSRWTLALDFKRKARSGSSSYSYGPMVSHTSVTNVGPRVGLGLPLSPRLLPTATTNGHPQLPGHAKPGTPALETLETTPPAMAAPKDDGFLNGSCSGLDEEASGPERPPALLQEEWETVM
Description: In vitro cAMP signal activity in HKRK-B7 cells (LLC-PK1 cells overexpressing the human PTH1 receptor). It is filed as cell-based. Particulars: HKRK-B7 cells; compound at 1×10^−3 M; […]; 0.1 µM.
Consider `Cc1cc(C(=O)N2CCC(=O)CC2)cc(C)c1/C=C/S(=O)(=O)N1CCC2(CC1)N=C(c1ccc(F)c(C(F)(F)F)c1)NC2=O` [Compound 972, 8-{(E)-2-[2,6-dimethyl-4-(4-oxo-piperidine-1-carbonyl)-phenyl]-ethenesulfonyl}-2-(4-fluoro-3-trifluoromethyl-phenyl)-1,3,8-triaza-spiro[4.5]dec-1-en-4-one], for which the “cAMP production activity (%)” value came out at 89%.

Take `Cc1cc(C(=O)N2CCC(F)(CO)CC2)ccc1CCS(=O)(=O)N1CCC2(CC1)N=C([C@H]1CC[C@H](CC=C(F)F)CC1)NC2=O` [Compound 973, 2-[4-(3,3-Difluoro-allyl)-cyclohexyl]-8-{2-[4-(4-fluoro-4-hydroxymethyl-piperidine-1-carbonyl)-2-methyl-phenyl}-ethanesulfonyl]-1,3,8-triaza-spiro[4.5]dec-1-en-4-one]: the “cAMP production activity (%)” value worked out at 112%.

The same test, now with this note: HKRK-B7 cells; compound at 1×10^−3 M; cAMP produced as percentage of that produced by hPTH(1-34) at 100 nM.
Take `Cc1cc(C(N)=O)cc(C)c1/C=C/S(=O)(=O)N1CCC2(CC1)N=C(c1cccc(OC(F)(F)F)c1)NC2=O` [Compound 962, 3,5-dimethyl-4-{(E)-2-[4-oxo-2-(3-trifluoromethoxy-phenyl)-1,3,8-triaza-spiro[4.5]dec-1-ene-8-sulfonyl]-vinyl}-benzamide]: the “cAMP production activity (%)” value amounted to 86%.

For the compound `Cc1cc(C(=O)N2CC(F)C2)cc(C)c1/C=C/S(=O)(=O)N1CCC2(CC1)N=C(c1cccc(OC(F)(F)F)c1)NC2=O` [Compound 963, 8-{(E)-2-[4-(3-Fluoro-azetidine-1-carbonyl)-2,6-dimethyl-phenyl]-ethenesulfonyl}-2-(3-trifluoromethoxy-phenyl)-1,3,8-triaza-spiro[4.5]dec-1-en-4-one], the “cAMP production activity (%)” value was found to be 16%.

For `Cc1cc(C(=O)N2CCC(O)CC2)cc(C)c1CCS(=O)(=O)N1CCC2(CC1)N=C(c1cccc(OC(F)(F)F)c1)NC2=O` [Compound 964, 8-{2-[4-(4-Hydroxy-piperidine-1-carbonyl)-2,6-dimethyl-phenyl]-ethanesulfonyl}-2-(3-trifluoromethoxy-phenyl)-1,3,8-triaza-spiro[4.5]dec-1-en-4-one], the “cAMP production activity (%)” value came out at 119%.

As to `Cc1cc(C(=O)N2CC(O)C2)cc(C)c1CCS(=O)(=O)N1CCC2(CC1)N=C(c1cccc(OC(F)(F)F)c1)NC2=O` [Compound 965, 8-{2-[4-(3-hydroxy-azetidine-1-carbonyl)-2,6-dimethyl-phenyl]-ethanesulfonyl}-2-(3-trifluoromethoxy-phenyl)-1,3,8-triaza-spiro[4.5]dec-1-en-4-one], the “cAMP production activity (%)” value is 115%.

Consider `Cc1cc(C(=O)N2CCC(CO)CC2)cc(C)c1CCS(=O)(=O)N1CCC2(CC1)N=C(c1cccc(OC(F)(F)F)c1)NC2=O` [Compound 966, 8-{2-[4-(4-hydroxymethyl-piperidine-1-carbonyl)-2,6-dimethyl-phenyl]-ethanesulfonyl}-2-(3-trifluoromethoxy-phenyl)-1,3,8-triaza-spiro[4.5]dec-1-en-4-one], for which the “cAMP production activity (%)” value is on record as 82%.

`Cc1cc(C(=O)N2CC3(COC3)C2)cc(C)c1/C=C/S(=O)(=O)N1CCC2(CC1)N=C(c1ccc(F)c(C(F)(F)F)c1)NC2=O` [Compound 967, 8-{(E)-2-[2,6-Dimethyl-4-(2-oxa-6-aza-spiro[3.3]heptane-6-carbonyl)-phenyl]-ethenesulfonyl}-2-(4-fluoro-3-trifluoromethyl-phenyl)-1,3,8-triaza-spiro[4.5]dec-1-en-4-one]: the “cAMP production activity (%)” value is recorded as 44%.

Regarding `Cc1cc(C(=O)N2CCNC(=O)C2)cc(C)c1/C=C/S(=O)(=O)N1CCC2(CC1)N=C(c1ccc(F)c(C(F)(F)F)c1)NC2=O` [Compound 968, 8-{(E)-2-[2,6-Dimethyl-4-(3-oxo-piperazine-1-carbonyl)-phenyl]-ethenesulfonyl}-2-(4-fluoro-3-trifluoromethyl-phenyl)-1,3,8-triaza-spiro[4.5]dec-1-en-4-one], the “cAMP production activity (%)” value stood at 69%.

For the compound `Cc1cc(C(=O)N2C[C@@H](C)N[C@@H](C)C2)cc(C)c1/C=C/S(=O)(=O)N1CCC2(CC1)N=C(c1ccc(F)c(C(F)(F)F)c1)NC2=O` [Compound 969, 8-{(E)-2-[4-((3R,5S)-3,5-dimethyl-piperazine-1-carbonyl)-2,6-dimethyl-phenyl]-ethenesulfonyl}-2-(4-fluoro-3-trifluoromethyl-phenyl)-1,3,8-triaza-spiro[4.5]dec-1-en-4-one], the “cAMP production activity (%)” value is 45%.

For `Cc1cc(C(=O)N2CC(C)(O)C2)cc(C)c1/C=C/S(=O)(=O)N1CCC2(CC1)N=C(c1ccc(F)c(C(F)(F)F)c1)NC2=O` [Compound 970, 2-(4-fluoro-3-trifluoromethyl-phenyl)-8-{(E)-2-[4-(3-hydroxy-3-methyl-azetidine-1-carbonyl)-2,6-dimethyl-phenyl]-ethenesulfonyl}-1,3,8-triaza-spiro[4.5]dec-1-en-4-one], the “cAMP production activity (%)” value was 112%.

As to `Cc1cc(C(=O)N2CCC(O)(CO)CC2)cc(C)c1/C=C/S(=O)(=O)N1CCC2(CC1)N=C(c1ccc(F)c(C(F)(F)F)c1)NC2=O` [Compound 971, 2-(4-fluoro-3-trifluoromethyl-phenyl)-8-{(E)-2-[4-(4-hydroxy-4-hydroxymethyl-piperidine-1-carbonyl)-2,6-dimethyl-phenyl]-ethenesulfonyl}-1,3,8-triaza-spiro[4.5]dec-1-en-4-one], the “cAMP production activity (%)” value stood at 83%.

Consider `Cc1cc(C(=O)N2CCC(O)(CF)CC2)ccc1CCS(=O)(=O)N1CCC2(CC1)N=C([C@H]1CC[C@H](CC=C(F)F)CC1)NC2=O` [Compound 974, 2-[4-(3,3-difluoro-allyl)-cyclohexyl]-8-{2-[4-(4-fluoromethyl-4-hydroxy-piperidine-1-carbonyl)-2-methyl-phenyl]-ethanesulfonyl}-1,3,8-triaza-spiro[4.5]dec-1-en-4-one], for which the “cAMP production activity (%)” value is 111%.

Consider `CCC1CCC(C2=NC3(CCN(S(=O)(=O)CCc4ccc(C(=O)N5CCN(CCF)CC5)cc4C)CC3)C(=O)N2)CC1` (stereo not shown) [Compound 975, 2-(4-Ethyl-cyclohexyl)-8-(2-{4-[4-(2-fluoro-ethyl)-piperazine-1-carbonyl]-2-methyl-phenyl}-ethanesulfonyl)-1,3,8-triaza-spiro[4.5]dec-1-en-4-one], for which the “cAMP production activity (%)” value turned out to be 74%.

In the case of `CCC1CCC(C2=NC3(CCN(S(=O)(=O)CCc4ccc(C(=O)N5CCN(C6COC6)CC5)cc4C)CC3)C(=O)N2)CC1` (stereo not shown) [Compound 976, 2-(4-ethyl-cyclohexyl)-8-{2-[2-methyl-4-(4-oxetan-3-yl-piperazine-1-carbonyl)-phenyl]-ethanesulfonyl}-1,3,8-triaza-spiro[4.5]dec-1-en-4-one], the “cAMP production activity (%)” value is listed as 73%.

Take `CCCCCCCCCC1=NC2(CCN(S(=O)(=O)CCc3ccc(C(=O)N4CCCC4)cc3C)CC2)C(=O)N1` [Compound 977, 8-{2-[2-Methyl-4-(pyrrolidine-1-carbonyl)-phenyl]-ethanesulfonyl}-2-nonyl-1,3,8-triaza-spiro[4.5]dec-1-en-4-one]: the “cAMP production activity (%)” value was 80%.

Regarding `CCCCCCCCCC1=NC2(CCN(S(=O)(=O)CCc3ccc(C(=O)N4CCC4)cc3C)CC2)C(=O)N1` [Compound 978, 8-{2-[4-(azetidine-1-carbonyl)-2-methyl-phenyl]-ethanesulfonyl}-2-nonyl-1,3,8-triaza-spiro[4.5]dec-1-en-4-one], the “cAMP production activity (%)” value is on record as 91%.

Take `CCCCCCCCCC1=NC2(CCN(S(=O)(=O)CCc3ccc(C(=O)N4CC[C@@H](O)C4)cc3C)CC2)C(=O)N1` [Compound 979, 8-{2-[4-((R)-3-hydroxy-pyrrolidine-1-carbonyl)-2-methyl-phenyl]-ethanesulfonyl}-2-nonyl-1,3,8-triaza-spiro[4.5]dec-1-en-4-one]: the “cAMP production activity (%)” value was determined as 145%.

Consider `CCCCCCCCCC1=NC2(CCN(S(=O)(=O)CCc3c(C)cc(C(=O)N4CCCC4)cc3C)CC2)C(=O)N1` [Compound 980, 8-{2-[2,6-Dimethyl-4-(pyrrolidine-1-carbonyl)-phenyl]-ethanesulfonyl}-2-nonyl-1,3,8-triaza-spiro[4.5]dec-1-en-4-one], for which the “cAMP production activity (%)” value is reported as 85%.

As for `CCCCCCCCCC1=NC2(CCN(S(=O)(=O)CCc3c(C)cc(C(=O)N4CC[C@@H](O)C4)cc3C)CC2)C(=O)N1` [Compound 981, 8-{2-[4-((R)-3-hydroxy-pyrrolidine-1-carbonyl)-2,6-dimethyl-phenyl]-ethanesulfonyl}-2-nonyl-1,3,8-triaza-spiro[4.5]dec-1-en-4-one], the “cAMP production activity (%)” value is 106%.

Regarding `CCCCCCCCCC1=NC2(CCN(S(=O)(=O)CCc3c(C)cc(C(=O)N4CCC4)cc3C)CC2)C(=O)N1` [Compound 982, 8-{2-[4-(azetidine-1-carbonyl)-2,6-dimethyl-phenyl]-ethanesulfonyl}-2-nonyl-1,3,8-triaza-spiro[4.5]dec-1-en-4-one], the “cAMP production activity (%)” value stood at 96%.

Regarding `CCCCCCCCCC1=NC2(CCN(S(=O)(=O)CCc3c(C)cc(C(=O)N4CCCCC4)cc3C)CC2)C(=O)N1` [Compound 983, 8-{2-[2,6-dimethyl-4-(piperidine-1-carbonyl)-phenyl]-ethanesulfonyl}-2-nonyl-1,3,8-triaza-spiro[4.5]dec-1-en-4-one], the “cAMP production activity (%)” value is 91%.
